# Patent publication US11713470B2, “Targeted gene therapies for pain and other neuro-related disorders” (University of Pittsburgh—Of the Commonwealth System of …, priority 2017, dated 2023)
# Entries after “also recorded” stand apart in the source; their conditions may differ.
# Experiments:
# Assay type in all cases: in vivo, mouse
# [1] = target: T1, PSAM-GlyR in CCK^+ dorsal horn neurons (Homo sapiens, UniProt P23415+P36544, L141F); settings: CCK^Cre mice with PSAM-GlyR
# T1 construct: plasmid from Addgene (Sternson); host or cells: mouse dorsal horn neurons transduced with Cre-dependent AAV2/8 (Tlx3^Cre, CCK^Cre or Calr^Cre mice)
# T1 sequence (P36544+P23415 fused P36544:L141F): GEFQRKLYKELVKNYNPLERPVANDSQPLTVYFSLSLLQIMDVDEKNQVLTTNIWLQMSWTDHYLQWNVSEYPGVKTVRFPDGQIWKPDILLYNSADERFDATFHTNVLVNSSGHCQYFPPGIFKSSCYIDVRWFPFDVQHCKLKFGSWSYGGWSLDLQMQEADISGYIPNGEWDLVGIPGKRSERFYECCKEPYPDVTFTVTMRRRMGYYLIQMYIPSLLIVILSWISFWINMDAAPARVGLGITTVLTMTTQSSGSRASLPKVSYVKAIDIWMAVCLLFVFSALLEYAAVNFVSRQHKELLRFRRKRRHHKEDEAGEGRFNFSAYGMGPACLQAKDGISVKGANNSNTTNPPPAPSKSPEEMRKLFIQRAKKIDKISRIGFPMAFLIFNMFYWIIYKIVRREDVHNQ
# From the text: (§1) Methods. Animals: All animals were kept on a standard 12:12 light/dark cycle in micro-isolator caging racks (Allentown Caging) with food and water provided ad libitum. Mouse strains obtained from Jackson Laboratories include C57Bl/6J (JAX #000664), Calr^Cre (JAX #010774) and CCK^Cre (JAX #012706). Adeno-associated viruses (AAV2/8) used in these experiments: hSyn-Flex-rev-PSAM^L141F-GlyR-IRES-eGFP (7^12 vg/ml) and hSyn-Flex-rev-PSAM^L141F,Y115F-GlyR-IRES-eGFP (1.7^13 vg/ml) were custom made by UNC Vector core based on plasmid material developed by Scott Sternson and provided by Addgene. The hSyn-Flex-rev-PSAM^L141F-GlyR-IRES-eGFP (7^12 vg/ml) was used in all experiments except FIG. 8 (e,f). For these experiments, hSyn-Flex-rev-PSAM^L141F,Y115F-GlyR-IRES-eGFP (1.7^13 vg/ml) was used. Methods including: intra-spinal virus injections, paw withdrawal threshold to von Frey filaments, to cotton swab, Hargreaves, pinprick and acute pain behaviors licking, guarding, flicking are all as previously described (Peirs, C. et al. Dorsal Horn Circuits for Persistent Mechanical Pain. Neuron 87, 797-812 (2015); Seal, R. P. et al. Injury-induced mechanical hypersensitivity requires C-low threshold mechanoreceptors. Nature 462, 651-655, (2009)); For paw withdrawal threshold to pressure: mice were lightly restrained by hand such that their rear legs were allowed to freely hang. Using a Pressure Application Measurement device (Ugo Basile) the hind paw was grasped between the experimenter's forefinger and thumb (with pressure transducer on the thumb), and force was slowly applied to the paw until the mouse struggled or flicked its limb (paw withdrawal threshold, PWT). The final force in grams was recorded. Each mouse was tested on the left and right paw for three trials with a ten-minute inter-trial interval between applications, and the three results averaged for each paw. Injury Models including incision, complete Freund's adjuvant, spared nerve injury tibial and sural models, carrageenan, methylglyoxal and multi-dose streptozotocin are as previously described (Peirs, C. et al. Dorsal Horn Circuits for Persistent Mechanical Pain. Neuron 87, 797-812 (2015); Seal, R. P. et al. Injury-induced mechanical hypersensitivity requires C-low threshold mechanoreceptors. Nature 462, 651-655, (2009); Decosterd, I. and Woolf, C. J. Spared nerve injury: an animal model of persistent peripheral neuropathic pain. Pain 87, 149-158 (2000); Bierhaus, A. et al. Methylglyoxal modification of Nav1.8 facilitates nociceptive neuron firing and causes hyperalgesia in diabetic neuropathy. Nat Med 18, 926-933 (2012); Cavanaugh, D. J. et al. Distinct subsets of unmyelinated primary sensory fibers mediate behavioral responses to noxious thermal and mechanical stimuli. Proc Natl Acad Sci USA 106, 9075-9080, (2009)). Chemogenetic Activation of PSAM-GlyR Receptor: Behavior thresholds were performed as described above in AAV8-hSyn-DIO-PSAM-GlyR-IRES-GFP injected mice. PSEM^89S at 30 mg/kg was injected intraperitoneally 15 minutes prior to testing. Immunohistochemistry was performed as previously described (Peirs, C. et al. Dorsal Horn Circuits for Persistent Mechanical Pain. Neuron 87, 797-812 (2015); Seal, R. P. et al. Injury-induced mechanical hypersensitivity requires C-low threshold mechanoreceptors. Nature 462, 651-655 (2009)). α-bungarotoxin conjugated to Alexa-647 (1:1000; ThermoFisher B35450), α-bungarotoxin conjugated to Alexa-488 (1:1000; ThermoFisher B13422). Imaging: Spinal cord sections were imaged with a confocal laser-scanning microscope (Nikon A1R) and Nikon Elements software using 405-, 488-, 561- and 640 nm excitation laser light. In order to suppress emission crosstalk, the microscope was configured to perform all scanning in sequential mode. Z-series were scanned at 20× magnification with an oil immersion lens and a z-step of 5.0 μm. Quantification and Statistical Analysis: all data are reported as mean±SEM. For acute behaviors, a two-tailed Student's t-test was used. […]
# [2] = target: T2, PSAM-GlyR in calretinin neurons in the dorsal horn lamina II (Homo sapiens, UniProt P23415+P36544, L141F); settings: Calr^Cre mice with PSAM-GlyR, 30 mg/kg i.p.
# T2 construct: plasmid from Addgene (Sternson); host or cells: mouse dorsal horn neurons transduced with Cre-dependent AAV2/8 (Tlx3^Cre, CCK^Cre or Calr^Cre mice)
# T2 sequence (P36544+P23415 fused P36544:L141F): as above
# From the text: as §1
# [3] = target: T1, PSAM-GlyR in CCK^+ dorsal horn neurons; assay: Persistent pain models in mice expressing PSAM-GlyR in CCK^+ dorsal horn neurons; settings: 30 mg/kg i.p., PSAM-GlyR in CCK^+ neurons
# From the text: as §1
# [4] = target: T3, PSAM-GlyR in CCK^+ dorsal horn neurons (Homo sapiens, UniProt P23415+P36544, L141F/Y115F); assay: as above; settings: PSAM^L141F,Y115F-GlyR virus, CCK^+ neurons
# T3 construct: plasmid from Addgene (Sternson); host or cells: mouse dorsal horn neurons transduced with Cre-dependent AAV2/8 (Tlx3^Cre, CCK^Cre or Calr^Cre mice)
# T3 sequence (P36544+P23415 fused P36544:Y115F/P36544:L141F): as the sequence (P36544+P23415 fused P36544:L141F) above, with Y93F counted along it
# From the text: as §1
# [5] = target: T2, PSAM-GlyR in calretinin neurons in the dorsal horn lamina II; assay: Inflammatory pain models in Calr^Cre mice expressing PSAM-GlyR in the dorsal horn; settings: 30 mg/kg i.p.
# From the text: as §1, with “Nat Med 18, 926-933 (2012); Cavanaugh, D. J. et al. Distinct subsets of unmyelinated primary sensory fibers mediate behavioral responses to noxious thermal and mechanical stimuli. Proc Natl Acad Sci USA 106, 9075-9080, (2009)). Chemogenetic Activation of PSAM-GlyR Receptor: Behavior thresholds were performed as described above in AAV8-hSyn-DIO-PSAM-GlyR-IRES-GFP injected mice. PSEM^89S at 30 mg/kg was injected intraperitoneally 15 minutes prior to testing. Immunohistochemistry was performed as previously described (Peirs, C. et al. Dorsal Horn Circuits for Persistent Mechanical Pain. Neuron 87, 797-812 (2015); Seal, R. P. et al. Injury-induced mechanical hypersensitivity requires C-low threshold mechanoreceptors. Nature 462, 651-655 (2009)). α-bungarotoxin conjugated to Alexa-647 (1:1000; ThermoFisher B35450), α-bungarotoxin conjugated to Alexa-488 (1:1000; ThermoFisher B13422). Imaging: Spinal cord sections were imaged with a confocal laser-scanning microscope (Nikon A1R) and Nikon Elements software using 405-, 488-, 561- and 640 nm excitation laser light. In order to suppress emission crosstalk, the microscope was configured to perform all scanning in sequential mode. Z-series were scanned at 20× magnification with an oil immersion lens and a z-step of 5.0 μm.” left out, “mean±SEM.” for “mean±SEM. For acute behaviors, a two-tailed Student's t-test was used.”
smiles,measurement,setting,value
COc1ccc(OC)c(C(=O)NC2CN3CCC2CC3)c1 (stereo not drawn) [PSEM^89S],performance on the rotarod,[1],not altered
same,baseline von Frey threshold,"[1]; 30 mg/kg i.p., p=0.2192",no effect
same,baseline pinprick,[1]; p=0.5983,no effect
same,baseline response to cotton swab,[1]; p=0.7293,no effect
same,baseline pressure with calibrated calipers,[1]; p=0.7450,no effect
same,baseline Hargreaves latencies,[1]; p=0.9746,unchanged
same,baseline ipsilateral von Frey threshold,[2]; p=0.3988,no effect
same,baseline Hargreaves latencies,[2]; p=0.6125,unchanged
same,baseline pinprick,[2]; p=0.7689,no effect
same,baseline response to cotton swab,[2]; p=0.7963,no effect
same,baseline pressure with calibrated calipers,[2]; p=0.8350,no effect
same,baseline sticky tape,[2]; p=0.9346,no effect
same,"dynamic allodynia, carrageenan pain model",[3]; p=0.0001,significantly reversed
same,"dynamic allodynia, sural-SNI model",[3]; p=0.0001,significantly reversed
same,"heat hypersensitivity, carrageenan pain model",[3]; p=0.0002,significantly reversed
same,"punctate allodynia, sural-SNI model",[3]; p=0.0003,significantly reversed
same,"dynamic allodynia, CFA model",[3]; p=0.0016,markedly reversed; also recorded: significantly reversed
same,"punctate allodynia, carrageenan pain model",[3]; p=0.0017,significantly reversed
same,"punctate allodynia, CFA model",[3]; p=0.0034,markedly reversed; also recorded: significantly reversed
same,"punctate allodynia, tibial-SNI model",[3]; p=0.0054,markedly reversed
same,"heat hypersensitivity, CFA model",[3]; p=0.0368,markedly reversed; also recorded: significantly reversed
same,heat hypersensitivity induced by multi-dose STZ,[4]; p=0.010,reversed
same,heat hypersensitivity induced by MG (methylglyoxal),[4]; p=0.0272,reversed
same,"mechanical allodynia (punctate), carrageenan model","[5]; 24 hours after carrageenan, p=0.0074",reverses; also recorded: significantly reversed
same,"mechanical allodynia (punctate), CFA model","[5]; 5 days after CFA, ipsilateral hindpaw, p=0.0026",reverses; also recorded: complete reversal
same,"dynamic mechanical allodynia, incision model",[5]; p=0.0001,reverses
same,"punctate mechanical allodynia, incision model",[5]; p=0.0028,reverses
